Assay [1] in a line: Cytotoxicity against human HepG2(2.2.15) cells by MTT assay. The assay is classed as functional, cell-based.
The test system of assay [2] is HepG2. Kind of assay: Cytotoxicity against human HepG2 cells by MTT assay. Type of assay: functional, cell-based.

Molecules are shown by their SMILES. In brackets after ≈: the same amount, converted by molar mass.

As usually defined, the IC50 is the concentration that gives 50% inhibition. A lower IC50 goes with greater potency.

For `C[C@@H]1O[C@@H](OC(C)(C)[C@@H]2CC[C@@]3(C)CCC[C@@](C)(O)[C@@H]3C2)[C@H](O)[C@H](O)[C@H]1O`, the values for the IC50 in assay [1] and in assay [2] were 0.36 mg/L (≈ 0.931 µM) and 0.01 mg/L (≈ 0.0259 µM), respectively.
For `CC1=C2C[C@H](C(C)(C)O)CC[C@@]2(C)CCC1`, the results for the IC50 in assay [1] and in assay [2] were 0.01 mg/L (≈ 0.045 µM) and 1.5 mg/L (≈ 6.75 µM), respectively.
As to `COc1cc(/C=C/C(=O)NCCc2ccc(O)cc2)ccc1O` [N-TRANS-FERULOYL TYRAMINE], the IC50 in assay [1] was found to be 1.9 mg/L (≈ 6.06 µM); in assay [2] it was 6.6 mg/L (≈ 21.1 µM).
On to `Cc1ccnc2c1C(=O)c1ccccc1C2=O` [CLEISTOPHOLINE], for which the IC50 in assay [1] was 0.54 mg/L (≈ 2.42 µM); in assay [2], 0.22 mg/L (≈ 0.986 µM).
In the case of `CC1=C2C[C@H](C(C)(C)O[C@@H]3O[C@@H](C)[C@H](O)[C@@H](O)[C@H]3O)CC[C@@]2(C)CCC1`, the IC50 was 10.6 mg/L (≈ 28.8 µM) in assay [1] and 3.9 mg/L (≈ 10.6 µM) in assay [2].
The matching figures for `Cc1ccc2c(n1)C[C@H](C(C)(C)O)CC[C@H]2C` [CANANODINE]: 3.8 mg/L (≈ 16.3 µM) and 0.22 mg/L (≈ 0.943 µM).

Values taken from ChEMBL document CHEMBL1150838, “Cytotoxic constituents of the fruits of Cananga odorata” (J Nat Prod, 2001).
